pIC50: −log10 of the molar value.
Each molecule was assayed against T1, H. sapiens SLC2A9 variant 2 (GLUT9B) (Homo sapiens, UniProt Q9NRM0) (assay: GLUT9 functional assay: uric acid uptake in HEK293T cells, allantoin formation by MS/MS as proxy of GLUT9B inhibition). Details: 60 minute assay; HEK293T cells stably expressing GLUT9B and transiently A. oryzae uricase; uric acid 0.3 mM, 37° C.; read-out: 60 min IC50.
T1 sequence (Q9NRM0 1-511 isoform Q9NRM0-2): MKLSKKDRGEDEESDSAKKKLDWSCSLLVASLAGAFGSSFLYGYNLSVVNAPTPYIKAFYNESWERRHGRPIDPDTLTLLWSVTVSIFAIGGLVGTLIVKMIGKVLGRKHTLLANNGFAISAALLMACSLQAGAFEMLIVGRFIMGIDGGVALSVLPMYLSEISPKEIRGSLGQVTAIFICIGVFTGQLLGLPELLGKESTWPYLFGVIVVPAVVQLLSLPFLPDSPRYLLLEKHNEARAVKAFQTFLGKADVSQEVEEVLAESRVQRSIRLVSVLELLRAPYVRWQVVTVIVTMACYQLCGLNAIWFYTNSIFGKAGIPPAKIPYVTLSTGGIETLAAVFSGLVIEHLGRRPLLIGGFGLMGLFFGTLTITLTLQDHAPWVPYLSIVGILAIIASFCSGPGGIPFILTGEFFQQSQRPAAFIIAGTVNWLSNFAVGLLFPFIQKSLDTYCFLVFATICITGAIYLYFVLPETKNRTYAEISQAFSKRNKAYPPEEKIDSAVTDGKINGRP
Format: cell-based
Summary of the method: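 Inhibition of GLUT9B-mediated urate uptake read as reduced allantoin formation, measured by MS/MS against allantoin standards in HEK293T matrix with log-logistic fitting. Stable GLUT9B HEK293T cells carrying transfected A. oryzae uricase were incubated 15 or 60 min at 37° C with uric acid at Km (0.3 mM), pH 7.4 gluconate buffer.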

pIC50	Compound
> 6.30	COCCCc1cnc(-c2cc(F)c3occc3c2)c(N2CCC(C)(C(=O)O)CC2)n1 [Compound 184, 1-(3-(7-fluorobenzofuran-5-yl)-6-(3-methoxypropyl)pyrazin-2-yl)-4-methylpiperidine-4-carboxylic acid]
5.70 to 6.30	COCCCc1cnc(-c2cc(F)c3occc3c2)c(N2CCC(O)(C(=O)O)CC2)n1 [Compound 185, 1-(3-(7-fluorobenzofuran-5-yl)-6-(3-methoxypropyl)pyrazin-2-yl)-4-hydroxypiperidine-4-carboxylic acid]
> 6.30	COCCCc1cnc(-c2cc(F)c3occc3c2)c(N2CCC(C(=O)O)C3CC32)n1 (stereo not drawn) [Compound 186, 2-(3-(7-fluorobenzofuran-5-yl)-6-(3-methoxypropyl)pyrazin-2-yl)-2-azabicyclo[4.1.0]heptane-5-carboxylic acid]
> 6.30	COCCCc1cnc(-c2cc(F)c3occc3c2)c(N2CCC(C(=O)O)C(F)(F)C2)n1 (stereo not drawn) [Compound 187, 3,3-difluoro-1-(3-(7-fluorobenzofuran-5-yl)-6-(3-methoxypropyl)pyrazin-2-yl)piperidine-4-carboxylic acid]
> 6.30	O=C(O)C1CCN(c2nc(CCCC(F)F)cnc2-c2cc(F)c3occc3c2)CC1 [Compound 188, 1-(6-(4,4-difluorobutyl)-3-(7-fluorobenzofuran-5-yl)pyrazin-2-yl)piperidine-4-carboxylic acid]
> 6.30	COCCCc1cnc(-c2ccc3c(c2)OCO3)c(N2CCC(C(=O)O)CC2)n1 [Compound 189, 1-(3-(benzo[d][1,3]dioxol-5-yl)-6-(3-Methoxypropyl)Pyrazin-2-yl)piperidine-4-carboxylic acid]
> 6.30	COCCCc1cnc(-c2cc(F)c3c(c2)OCO3)c(N2CCC(C(=O)O)CC2)n1 [Compound 190, 1-(3-(7-Fluorobenzo[d][1,3]dioxol-5-yl)-6-(3-Methoxypropyl)Pyrazin-2-yl)piperidine-4-carboxylic acid]
> 6.30	COCCCc1cnc(-c2ccc3c(c2)OCO3)c(N2CCC(C(=O)O)CC2)c1 [Compound 191, 1-(2-(benzo[d][1,3]dioxol-5-yl)-5-(3-Methoxypropyl)Pyridin-3-yl)piperidine-4-carboxylic acid]
> 6.30	COCCCc1cnc(-c2cc(F)c3c(c2)CCO3)c(N2CCC(C)(C(=O)O)CC2)n1 [Compound 192, 1-(3-(7-fluoro-2,3-dihydrobenzofuran-5-yl)-6-(3-methoxypropyl)pyrazin-2-yl)-4-methylpiperidine-4-carboxylic acid]
< 5.70	COCCCc1cnc(-c2ccc3c[nH]nc3c2)c(N2CCC(C(=O)O)CC2)n1 [Compound 193, 1-(3-(2H-indazol-6-yl)-6-(3-methoxypropyl)pyrazin-2-yl)piperidine-4-carboxylic acid]
< 5.70	COCCCc1cnc(-c2ccnc3[nH]ccc23)c(N2CCC(C(=O)O)CC2)n1 [Compound 194, 1-(6-(3-methoxypropyl)-3-(1H-pyrrolo[2,3-b]pyridin-4-yl)pyrazin-2-yl)piperidine-4-carboxylic acid]
< 5.70	COCCCc1cnc(-c2ccc3ncnn3c2)c(N2CCC(C(=O)O)CC2)n1 [Compound 195, 1-(3-([1,2,4]triazolo[1,5-a]pyridin-6-yl)-6-(3-methoxypropyl)pyrazin-2-yl)piperidine-4-carboxylic acid]
< 5.70	COCCCc1cnc(-c2cnc3nccn3c2)c(N2CCC(C(=O)O)CC2)n1 [Compound 196, 1-(3-(imidazo[1,2-a]pyrimidin-6-yl)-6-(3-methoxypropyl)pyrazin-2-yl)piperidine-4-carboxylic acid]
< 5.70	COCCCc1cnc(-c2ccc3c(C)[nH]nc3c2)c(N2CCC(C(=O)O)CC2)n1 [Compound 197, 1-(6-(3-methoxypropyl)-3-(3-methyl-2H-indazol-6-yl)pyrazin-2-yl)piperidine-4-carboxylic acid]
< 5.70	COCCCc1cnc(-c2ccc3nn(C)cc3c2)c(N2CCC(C(=O)O)CC2)n1 [Compound 198, 1-(6-(3-methoxypropyl)-3-(2-methyl-2H-indazol-5-yl)pyrazin-2-yl)piperidine-4-carboxylic acid]
< 5.70	COCCCc1cnc(-c2cnc3ccccc3c2)c(N2CCC(C(=O)O)CC2)n1 [Compound 199, 1-(6-(3-methoxypropyl)-3-(quinolin-3-yl)pyrazin-2-yl)piperidine-4-carboxylic acid]
< 5.70	COCCCc1cnc(-c2ccnc3ccccc23)c(N2CCC(C(=O)O)CC2)n1 [Compound 200, 1-(6-(3-methoxypropyl)-3-(quinolin-4-yl)pyrazin-2-yl)piperidine-4-carboxylic acid]

pIC50	Compound
< 5.70	COCCCc1cnc(-c2cc(C(F)(F)F)nn2C)c(N2CCC(C(=O)O)CC2)n1 [Compound 201, 1-(6-(3-methoxypropyl)-3-(1-methyl-3-(trifluoromethyl)-1H-pyrazol-5-yl)pyrazin-2-yl)piperidine-4-carboxylic acid]
< 5.70	COCCCc1cnc(-c2ccnn2CCC(C)C)c(N2CCC(C(=O)O)CC2)n1 [Compound 202, 1-(3-(1-isopentyl-1H-pyrazol-5-yl)-6-(3-methoxypropyl)pyrazin-2-yl)piperidine-4-carboxylic acid]
< 5.70	COCCCc1cnc(-c2cc3sccc3s2)c(N2CCC(C(=O)O)CC2)n1 [Compound 203, 1-(6-(3-methoxypropyl)-3-(thieno[3,2-b]thiophen-2-yl)pyrazin-2-yl)piperidine-4-carboxylic acid]
< 5.70	COCCCc1cnc(-c2ccc3nsnc3c2)c(N2CCC(C(=O)O)CC2)n1 [Compound 204, 1-(3-(benzo[c][1,2,5]thiadiazol-5-yl)-6-(3-methoxypropyl)pyrazin-2-yl)piperidine-4-carboxylic acid]
< 5.70	COCCCc1cnc(-c2ccc3nccn3c2)c(N2CCC(C(=O)O)CC2)n1 [Compound 205, 1-(3-(imidazo[1,2-a]pyridin-6-yl)-6-(3-methoxypropyl)pyrazin-2-yl)piperidine-4-carboxylic acid]
< 5.70	COCCCc1cnc(-c2cnn3c2CCCC3)c(N2CCC(C(=O)O)CC2)n1 [Compound 206, 1-(6-(3-methoxypropyl)-3-(4,5,6,7-tetrahydropyrazolo[1,5-a]pyridin-3-yl)pyrazin-2-yl)piperidine-4-carboxylic acid]
< 5.70	COCCCc1cnc(-c2ccc3cncn3c2)c(N2CCC(C(=O)O)CC2)n1 [Compound 207, 1-(3-(imidazo[1,5-a]pyridin-6-yl)-6-(3-methoxypropyl)pyrazin-2-yl)piperidine-4-carboxylic acid]
< 5.70	COCCCc1cnc(-c2ccn3ccnc3c2)c(N2CCC(C(=O)O)CC2)n1 [Compound 208, 1-(3-(imidazo[1,2-a]pyridin-7-yl)-6-(3-methoxypropyl)pyrazin-2-yl)piperidine-4-carboxylic acid]
< 5.70	COCCCc1cnc(-c2cnn3c2OCCC3)c(N2CCC(C(=O)O)CC2)n1 [Compound 209, 1-(3-(6,7-dihydro-5H-pyrazolo[5,1-b][1,3]oxazin-3-yl)-6-(3-methoxypropyl)pyrazin-2-yl)piperidine-4-carboxylic acid]
5.70 to 6.30	COCCCc1cnc(-c2cnc3sccc3c2)c(N2CCC(C(=O)O)CC2)n1 [Compound 210, 1-(6-(3-methoxypropyl)-3-(thieno[2,3-b]pyridin-5-yl)pyrazin-2-yl)piperidine-4-carboxylic acid]
< 5.70	COCCCc1cnc(-c2ccc3nccn3n2)c(N2CCC(C(=O)O)CC2)n1 [Compound 211, 1-(3-(imidazo[1,2-b]pyridazin-6-yl)-6-(3-methoxypropyl)pyrazin-2-yl)piperidine-4-carboxylic acid]
< 5.70	COCCCc1cnc(-c2ccn3ncnc3c2)c(N2CCC(C(=O)O)CC2)n1 [Compound 212, 1-(3-([1,2,4]triazolo[1,5-a]pyridin-7-yl)-6-(3-methoxypropyl)pyrazin-2-yl)piperidine-4-carboxylic acid]
< 5.70	COCCCc1cnc(-c2cccc3cn(C)nc23)c(N2CCC(C(=O)O)CC2)n1 [Compound 213, 1-(6-(3-methoxypropyl)-3-(2-methyl-2H-indazol-7-yl)pyrazin-2-yl)piperidine-4-carboxylic acid]
< 5.70	COCCCc1cnc(-c2ccnc3c2ccn3C)c(N2CCC(C(=O)O)CC2)n1 [Compound 214, 1-(6-(3-methoxypropyl)-3-(1-methyl-1H-pyrrolo[2,3-b]pyridin-4-yl)pyrazin-2-yl)piperidine-4-carboxylic acid]
< 5.70	COCCCc1cnc(-c2cccc3nn(C)cc23)c(N2CCC(C(=O)O)CC2)n1 [Compound 215, 1-(6-(3-methoxypropyl)-3-(2-methyl-2H-indazol-4-yl)pyrazin-2-yl)piperidine-4-carboxylic acid]
< 5.70	COCCCc1cnc(-c2cnc3c(c2)NCCO3)c(N2CCC(C(=O)O)CC2)n1 [Compound 216, 1-(3-(2,3-dihydro-1H-pyrido[2,3-b][1,4]oxazin-7-yl)-6-(3-methoxypropyl)pyrazin-2-yl)piperidine-4-carboxylic acid]

Source: US20250179032A1, “HETEROCYCLIC INHIBITORS OF GLUT9 FOR TREATMENT OF DISEASE” (HORIZON THERAPEUTICS IRELAND DAC, priority 2022, published 2025)
